# Results from patent US20010011128A1, “Hex II tumor-specific promoter and uses thereof” (priority 1996, published 2001).
# Experiments:
# [1] = test system: HK II promoter in NCI-H661 cells; experiment: Regulation of HK II promoter (pHexII4557 CAT) by glucose, insulin, glucagon; assay type: cell-based, human; conditions: NCI-H661 transfected with pHexII4557 CAT; 25 mM glucose, 100 nM insulin, 10 μM glucagon
# Protocol: Transient transfections were performed using Lipofect AMINE (Canadian Life Technologies. Burlington, ON, Canada). Seventy to 80% confluent cells were transfected with 1 μg of the reporter plasmid pCAT, pMUCI-1583 CAT, pHexII4557 CAT, or pRSV CAT (Rous sarcoma virus long terminal repeat promoter) (ATCC). One microgram of pSV2-Pgalactosidase (Promega) was cotransfected as an internal control for variations in transfection efficiency in serum-free Dulbecco's modified Eagle's medium (DMEM). The medium was replaced with fresh growth medium after 6 hr. In promoter regulation experiments, the cells were transfected in RPMI 1640 glucose-deficient medium. Six hours after transfection, the medium was replaced with RPMI 1640 glucose-deficient medium supplemented with 100 nM bovine insulin. 25 mM glucose, or 10 μM glucagon (Sigma Aldrich Canada. Oakville. ON, Canada) or a combination of insulin and glucose, supplemented with 1 mM sodium pyruvate and 100 μM glucose. […] The protein concentration of the extracts was measured using the Bradford protein assay from Bio-Rad (Mississauga, ON. Canada) and equal amounts were assayed in the chloramphenicol acetyltransferase (CAT) and β-galactosidase assays, which were carried out as described by the manufacturer (Promega). Percent acetylation was measured using the Bio-Rad Gelscan Phos-phoimager and the Molecular Analyst software program. […]
# [2] = test system: HK II mRNA in NHBECs; experiment: Ribonuclease protection assay of HK II mRNA; assay type: cell-based, human; conditions: 25 mM glucose, 100 nM insulin, 10 μM glucagon, 12 hr
# Protocol: For regulation studies, cells were grown to subconfluence in 75-cm^2 flasks, starved in serum-free, glucose-deficient RPMI 1640 medium (Canadian Life Technologies) for 18 hr, and induced in 25 mM glucose, 100 nM insulin, and 10 μM glucagon (Sigma Aldrich Canada) for 12 hr. RNA was extracted from cells using RNAzol (Tel-Test, Friendswood, Tex.) as described by the manufacturer. Contaminating DNA was digested with 5-10 units of DNase I (Pharmacia Biotech) in 10 mM MgCl2, 1 mM dithiothreitol (DTT), […] of RNA Guard (Pharmacia Biotech), 50-80 μl of total RNA at 1 μg/μl for 30 min at 37° C., followed by precipitation of total RNA.
# The HK II probe (0.1 fmol) and the human β-actin probe (2 fmol) were simultaneously hybridized to 30 μg of total RNA using the RPA II kit (Ambion, Austin, Tex.) according to the manufacturer recommendations. Probes were prepared by in vitro transcription using the MAXIscript kit (Ambion) and [α-^32P]UTP (6000 Ci/mmol, 40 mCi/ml). HK II (nucleotides 1500 to 1803 of HK II cDNA; GenBank Z-16376) was inserted in the pDP18-T7/T3 vector (Ambion). The template was cut with KpnI at the 5′ end of the insert and transcribed toward that site from the T7 promoter to produce a 430-bp transcript. The HK II-protected fragment is 303 bp. […] Quantitation was performed using the NIH Image 1.67b densitometry software.
# [3] = test system: H661 non-small cell lung carcinoma cells; experiment: CAT reporter gene assay, Hex II promoter activation (first series); assay type: cell-based, human; conditions: treatment of the transfectants
# Protocol: Transient transfections were performed using lipofectamine according to the manufacturer's recommendations (GIBCO-BRL). Cells were plated the day before transfection to give 60% confluency in 6-well plates. The p1583/+33MUC1.CAT or pHex4557.CAT vectors were transfected along with pSV2lacZ to determine promoter activity. 1 ug of each plasmid were used for each well. All conditions assayed were done in duplicate. The plasmids pRSV.CAT and promoterless pCAT were used as positive and negative controls, respectively. Cells extracts were prepared 48 hours after transfection and β-galactosidase activity was assayed to compensate for variations in transfection efficiency. CAT activity was determined from 75-100 ug of proteins. The reaction was carried out with 0.1 uCi of ^14C-labeled chloramphenicol in a 100 ul reaction at 37° C. for 4 hrs.
# [4] = MTT cell viability assay, pΔE1sp1B Hex TK transfectants treated with gancyclovir; assay type: cell-based; conditions: GCV 10 or 25 ug/ml, controls GCV alone or plasmid only
# Protocol: Cells in the logarithmic phase of growth were resuspended at a concentration of 2×10^5 cells/ml. 2 ml/well were plated in 6-well plates. Plates were incubated for 24 h at 37° C. in 5% CO2. Subsequently, cells were transfected with the pΔE1sp1B Hex TK plasmid as described above. […] Each condition was done in triplicate. Cells survival was calculated in the treated population as a percentage of controls. Controls are cells transfected with the plasmid alone or treated with the drug alone. MTT assays was performed two days following treatment. The formazan crystals were dissolved in […] (Fisher) and glycine buffer (0.1 M glycine-0.1 M NaCl, pH 10.5). The formazan product formed by viable cells was quantitated by measuring the absorbance at a wavelength of 570 nm.
Compound,"HK II promoter activation, increase over basal [1]",HK II mRNA level relative to basal [2],effect on Hex II promoter activation [3],cell survival less than control cells [4] [%]
"glucagon: regulator of glucose metabolism, physiological inhibitor of Hex II",did not lead to significant differences,repressed HK II expression,did not inhibit promoter activation,–
"insulin: bovine insulin, regulator of glucose metabolism",did not lead to significant differences,–,–,–
"Nc1nc(O)c2ncn(COC(CO)CO)c2n1 [GCV, gancyclovir]",–,–,–,50
